Laboratory results published in US20210220184A1, “ABSORBENT TAMPON FOR TREATMENT OF MENSTRUAL SYMPTOMS” (Anne's Day Ltd, priority 2018, published 2021).

Tested on: women with a history of mild or sever dysmenorrhea
Experiment: Clinical study of tampon with CBD (randomized, controlled, crossover, two menstrual cycles; questionnaire and diary data)
Type: in vivo
Details: tests performed by the inventors; cannabidiol provided on the tampon
Procedure: The following study was performed to assess the safety and efficacy of a tampon covered with CBD oil.
Patients and Samples. A total of 130 women aged between 18 and 42 with a history of mild or sever dysmenorrhea were recruited for this study.
Study design. […] Patients were divided into two groups. One group used a hemp, CBD-infused tampon. The tampon contained […] of CBD oil. The tampon consisted of highly absorbent organic hemp fibers and organic hemp overwrap, organic cotton stitching thread and organic cotton removal cord, and a layer of CBD oil sprayed on top of the hemp overwrap. A second group used a standard off-the-shelf tampon product as a control. The off-the-shelf tampon consisted of blended rayon and viscose fibers with a non-woven rayon overwrap, cotton stitching thread and removal cord.
In a first visit, a patient underwent a gynecological exam and had blood drawn to test for STIs. If the patient fit inclusion criteria, in a second visit, the patient was divided into an experimental group or control group. A control test for levels of CBD in the bloodstream was performed on all participants and the results recorded. All participants were given diaries and instructed to write a detailed account of the comfort of tampon insertion and removal, comfort of wear, and levels of pain experienced. […]

C=C(C)[C@@H]1CCC(C)=C[C@H]1c1c(O)cc(CCCCC)cc1O [cannabidiol]
vaginal delivery from the tampon to treat symptoms associated with menstruation: can be delivered vaginally
